Several values for one entry are separate records, joined by “and”; a condition that tells them apart may be missing. Equal entries are not always repeated.
Tests used:
PI3Kα = PI3Kα (Homo sapiens (Human), UniProt P42336); test: PI3K inhibitory activity, Method 1 activity test; type: biochemical; settings: PIP2 50 μM, ATP 25 μM
Procedure: Determination of the inhibitory activity of PI3K
(§1) 1. Preparation of test reagents
(1) 1× kinase buffer (50 mM HEPES, pH 7.5, 3 mM MgCl2, 1 mM EGTA, 100 mM NaCl, 0.03% CHAPS, 2 mM DTT);
(2) 4× kinase solution (added PI3K a kinase to 1× kinase buffer to provide 4× kinase solution with a final concentration of 1.65 nM);
(3) 2× substrate solution (added the substrates of PIP2 and ATP into 1× kinase buffer to provide 2× substrate solution with PIP2 final concentration of 50 μM and ATP final concentration of 25 μM);
(4) 4× test substance solutions (100× test substance solutions with different concentration gradients were prepared using 100% DMSO, and diluted 25-fold with 1× kinase buffer to give 4× test substance solutions with different concentration gradients);
(5) Invitrogen's activity test kit with the test solution was kept stand to room temperature.
(§2) 2. 2.5 μL of 4× test solution was added to a 384-well plate in parallel;
(§3) 3. added […] of 4× kinase solution and incubated for 10 min;
4. then added 5 μL of 2× solutions of PIP2 and ATP substrates and incubated for 1 h at room temperature;
5. finally, added 10 μL of test solution to quench the reaction, and read after 15 min;
(§4) 6. IC50 value was obtained via curve fitting. Inhibition rate (%)=(sample value−minimum)/(maximum−minimum)×100
Maximum refers to the readings of control wells without enzyme, minimum refers to the readings of DMSO control wells.
(§5) IC50 value was obtained via curve fitting using a soft of Graphpad 5.0.

mTOR = mTOR (Homo sapiens (Human), UniProt P42345); test: mTOR inhibitory activity, Method 1 activity test; type: biochemical; settings: 4EBP1 50 nM, ATP 10.8 μM
Procedure: Determination of the Inhibitory Activity of mTOR
as §1
(1) 1× kinase buffer (50 mM HEPES, pH 7.5, 10 mM MgCl2, 1 mM EGTA, 3 mM MnCl, 0.01% Tween-20, 2 mM DTT);
(2) 4× kinase solution (added mTOR kinase to 1× kinase buffer to provide 4× kinase solution with a final concentration of 2.5 nM);
(3) 2× substrate solution (added the substrates of 4EBP1 and ATP into 1× kinase buffer to provide 2× substrate solution with 4EBP1 final concentration of 50 nM and ATP final concentration of 10.8 μM);
(4) 4× test substance solutions (100× test substance solutions with different concentration gradients were prepared using 100% DMSO, and diluted 25-fold with 1× kinase buffer to give 4× test substance solutions with different concentration gradients)
(5) preparation of test solution (test solution containing EDTA and 4EBP1 phosphorylated antibody was prepared using activity test kit with assay buffer, the final concentration of EDTA was 8 mM, and the final concentration of 4EBP1 phosphorylated antibody was 2 nM)
as §2, §3
4. then added 5 μL of 2× solutions of 4EBP1 and ATP substrates and incubated for 1 h at room temperature;
5. finally, added 10 μL of test solution to quench the reaction, and read after 60 min;
as §4
Minimum refers to the readings of control wells without enzyme, maximum refers to the readings of DMSO control wells.
as §5

[1] = In vivo pharmacokinetics in rats, intravenous bolus injection (IV); settings: 2 mg/kg; for AUC / half-life: male, SD, rat, plasma, iv; for Cl_obs / Vss_obs: rats, IV
U87MG = test: Cell viability assay by XTT method, U87MG; type: cell-based; settings: Homo sapiens, U-87 MG
Procedure: (§6) 1. Preparation of Reagents and Compounds
(§7) 2) Preparation of XTT test working solution:
(§8) 100 mg of tetrazolium salt (XTT) powder was weighed and dissolved in dark in 300 mL of phenol red-free serum-free RPMI1640 medium heated to 50° C., filtered and subpackaged, used immediately or within a week. All process should be conducted in dark.
(§9) 3) Preparation of test compounds
(§10) preparation of stock solutions of the test substances: the powder of test substances was dissolved in DMSO in a concentration of 10 mM.
(§11) preparation of gradiently diluted stock solutions of test substances: First, 10 mM of the stock solutions of test substances were diluted serially in 4-fold with DMSO to 10 concentrations. 2 μL of DMSO-diluted solution for each compound was taken and added to 998 μL of culture medium containing 10% fetal bovine serum (FBS). The highest concentration of the test substances was 20 μM, the concentration of DMSO was 0.2%, and there were 10 concentration gradients in total.
(§12) 1) Preparation of cell suspension
(§13) The culture medium was discarded from the flask, and the cells were washed twice with PBS. Added trypsinase to digest the cell and then collected by centrifugation, resuspended with a medium containing 10% FBS, counted and adjusted to an appropriate concentration (cell viability must be greater than 90%). The cell concentration was […].
(§14) 2) The cell suspension was added to 96-well plates, each well 100 μL.
(§15) 3) Incubated in a cell incubator overnight at 37° C., 5% CO2.
(§16) Added compound diluted 2-fold to the cell culture plates, three repeated in total, 100 μL well.
(§17) 5. Cell Viability Assay by XTT Method
(§18) Discarded the culture medium, added XTT test working liquid in an amount of 150 μL well, and kept in a cell incubator at 37° C., 5% CO2 for 2 h, then placed into a microplate reader and read the absorbance at 450 nm.
(§19) 1) The percentage of inhibition was calculated using the following formula: Inhibition rate (%)=(reading(solvent)−reading(compound))/reading(solvent)−reading(positive control))×100
(§20) 2) The data was entered into GraphPad Prism 5.0 and plotted to obtain the curve and IC50.

SKOV-3 = test: Cell viability assay by XTT method, SKOV-3; type: cell-based; settings: Homo sapiens, SK-OV-3
Procedure: as §6, §7, §8, §9, §10, §11, §12, §13, §14, §15, §16, §17, §18, §19, §20

[2] = In vivo pharmacokinetics in rats, gavage (PO); settings: male, SD, rat, plasma, 4 mg/kg
SD rats = test: Repeated-dose toxicity test in rats; type: in vivo; settings: gavage once daily, 14 days, 20 rats
Procedure: The test substances were suspended in 0.5% methylcellulose solution to prepare suspensions with a concentration of 0.5 mg/mL, 1.5 mg/mL and 3 mg/mL.
Animals: SD rats, 6-8 weeks old, SPF grade, purchased from Beijing Vital River Laboratory Animal Technology Co., Ltd., licensed […] No: SCXK (Beijing) 2006-0009.
The test substances were administrated as a suspension via gavage, and administrating volume was 10 mL/kg. 0.5% methyl cellulose solution was used in the solvent group, and the administrating volume was 10 mL/kg, administered once daily for consecutive 14 days. Animals were observed daily appearance and general behavior changes.

PI3Kα, sequence (P42336 whole entry): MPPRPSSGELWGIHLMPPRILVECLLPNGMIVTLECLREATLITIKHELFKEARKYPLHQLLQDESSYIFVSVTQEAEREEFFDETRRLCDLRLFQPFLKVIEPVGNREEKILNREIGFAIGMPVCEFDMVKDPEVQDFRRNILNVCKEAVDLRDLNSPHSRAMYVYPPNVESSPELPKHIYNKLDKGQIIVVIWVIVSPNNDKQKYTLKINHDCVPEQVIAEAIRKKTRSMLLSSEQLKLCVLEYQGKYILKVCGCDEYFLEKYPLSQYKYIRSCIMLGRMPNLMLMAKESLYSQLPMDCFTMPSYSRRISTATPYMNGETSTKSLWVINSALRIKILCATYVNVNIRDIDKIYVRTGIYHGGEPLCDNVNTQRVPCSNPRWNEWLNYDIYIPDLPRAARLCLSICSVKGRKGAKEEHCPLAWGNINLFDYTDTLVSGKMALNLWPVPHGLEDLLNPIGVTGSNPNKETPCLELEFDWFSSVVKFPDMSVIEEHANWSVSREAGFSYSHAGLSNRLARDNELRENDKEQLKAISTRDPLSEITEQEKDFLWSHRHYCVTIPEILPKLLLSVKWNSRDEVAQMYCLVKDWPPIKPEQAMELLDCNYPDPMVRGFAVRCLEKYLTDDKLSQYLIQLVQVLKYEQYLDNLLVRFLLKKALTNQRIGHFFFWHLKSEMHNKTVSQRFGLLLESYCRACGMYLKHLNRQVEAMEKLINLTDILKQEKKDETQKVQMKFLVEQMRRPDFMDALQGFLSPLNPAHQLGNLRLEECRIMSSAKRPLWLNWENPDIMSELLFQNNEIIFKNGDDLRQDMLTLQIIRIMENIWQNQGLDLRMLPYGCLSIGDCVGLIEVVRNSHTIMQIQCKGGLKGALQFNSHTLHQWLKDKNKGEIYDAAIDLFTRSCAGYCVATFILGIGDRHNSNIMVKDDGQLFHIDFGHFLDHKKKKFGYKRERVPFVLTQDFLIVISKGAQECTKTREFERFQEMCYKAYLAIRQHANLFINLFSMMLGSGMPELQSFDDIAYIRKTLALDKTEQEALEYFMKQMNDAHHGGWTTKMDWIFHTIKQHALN
PI3Kα, sequence (P27986 whole entry partner): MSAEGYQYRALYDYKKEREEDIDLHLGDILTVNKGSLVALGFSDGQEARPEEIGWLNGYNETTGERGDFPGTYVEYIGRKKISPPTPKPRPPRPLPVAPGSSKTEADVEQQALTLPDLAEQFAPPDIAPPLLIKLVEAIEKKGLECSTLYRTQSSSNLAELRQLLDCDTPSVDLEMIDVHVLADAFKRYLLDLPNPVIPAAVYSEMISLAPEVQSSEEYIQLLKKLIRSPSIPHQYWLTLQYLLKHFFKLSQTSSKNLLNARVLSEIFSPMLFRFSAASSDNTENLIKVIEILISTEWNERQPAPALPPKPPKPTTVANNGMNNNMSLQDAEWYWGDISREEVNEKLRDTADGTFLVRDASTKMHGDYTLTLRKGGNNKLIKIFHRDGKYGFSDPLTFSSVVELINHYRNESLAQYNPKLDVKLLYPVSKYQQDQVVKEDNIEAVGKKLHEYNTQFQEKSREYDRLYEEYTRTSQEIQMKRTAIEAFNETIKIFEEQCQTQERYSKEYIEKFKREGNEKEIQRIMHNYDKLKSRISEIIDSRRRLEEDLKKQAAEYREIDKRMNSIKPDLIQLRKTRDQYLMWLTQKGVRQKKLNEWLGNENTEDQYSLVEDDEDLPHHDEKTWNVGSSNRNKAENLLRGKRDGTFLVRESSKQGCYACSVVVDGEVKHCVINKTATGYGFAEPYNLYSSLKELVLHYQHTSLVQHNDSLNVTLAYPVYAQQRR

Structure (SMILES)	IC50 (PI3Kα) [nM]	IC50 (mTOR) [nM]	AUC [1] [ng·h/mL]	half-life [1] [h]	Cl_obs [1] [mL/min/kg]	Vss_obs [1] [L/kg]	IC50 (U87MG) [nM]	IC50 (SKOV-3) [nM]	other results
COc1ncc(-c2ccc3ncc4c(c3n2)N(c2cccc(C(F)(F)F)c2)C(=O)N(C)C4)cn1 [Compound 13]	21	30.3							
CN1Cc2cnc3ccc(-c4cnc5[nH]ccc5c4)nc3c2N(c2cccc(C(F)(F)F)c2)C1=O [Compound 22, 3-methyl-9-(1H-pyrrolo[2,3-b]pyridin-5-yl)-1-(3-(trifluoromethyl)phenyl)-3,4-dihydropyrimido[5,4-c][1,5]naphthyridin-1(2H)-one]	10.2	17.5	357	0.72	92.8	5.28	275	551	
CC(=O)Nc1ccc(-c2ccc3ncc4c(c3n2)N(c2cccc(C(F)(F)F)c2)C(=O)N(C)C4)cn1 [Compound 7, N-(5-(3-methyl-2-oxo-1-(3-(trifluoromethyl)phenyl)-1,2,3,4-tetrahydropyrimido[5,4-c][1,5]naphthyridin-9-yl)pyridin-2-yl)acetamide]	29.3	38.7	275	0.47	124	4.45	901	895	AUC [2]: 63.4 ng·h/mL; Cmax [2]: 34.9 ng/mL; Tmax [2]: 0.5 h; bioavailability [2]: 11.6%; half-life [2]: 1.7 h
CN1Cc2cnc3ccc(-c4ccc(-n5cccn5)nc4)nc3c2N(c2cccc(C(F)(F)F)c2)C1=O [Compound 9]	873	43.7							
CN1Cc2cnc3ccc(-c4cnc5ccccc5c4)nc3c2N(c2ccc(N3CCNCC3)c(C(F)(F)F)c2)C1=O [Compound 80]							279	542	
CN1Cc2cnc3ccc(-c4cnc(N)nc4)nc3c2N(c2cccc(C(F)(F)F)c2)C1=O [Compound 14, 9-(2-aminopyrimidin-5-yl)-3-methyl-1-(3-(trifluoromethyl)phenyl)-3,4-dihydropyrimido[5,4-c][1,5]naphthyridin-1(2H)-one]	3.3	8.5	735	2.08	47.3	2.97	437	890	AUC [2]: 402 ng·h/mL; Cmax [2]: 147 ng/mL; Tmax [2]: 0.5 h; bioavailability [2]: 26.3%; half-life [2]: 1.39 h
COc1ccc(-c2ccc3ncc4c(c3n2)N(c2ccc(C(C)(C)C#N)cc2)C(=O)N(C)C4)cn1 [Compound 30, 2-(4-(9-(6-methoxypyridin-3-yl)-3-methyl-2-oxo-3,4-dihydropyrimido[5,4-c][1,5]naphthyridin-1(2H)-yl)phenyl)-2-methylpropionitrile]							499	349	
Cn1c(=O)n(-c2ccc(C(C)(C)C#N)cc2)c2c3cc(-c4cnc5ccccc5c4)ccc3ncc21 [BEZ-235, reference compound]			1440	3.19	23	5.93			hair loss (animals affected) (SD rats; high dose 30 mg/kg/day): three and 3/20; lassitude (animals affected) (SD rats; high dose 30 mg/kg/day): 0/20; loose stools (animals affected) (SD rats; high dose 30 mg/kg/day): fifteen and 15/20; hair loss (animals affected) (SD rats; low dose 5 mg/kg/day): 0/20; lassitude (animals affected) (SD rats; low dose 5 mg/kg/day): 0/20; loose stools (animals affected) (SD rats; low dose 5 mg/kg/day): six and 6/20; hair loss (animals affected) (SD rats; middle dose 15 mg/kg/day): 0/20; lassitude (animals affected) (SD rats; middle dose 15 mg/kg/day): 0/20; loose stools (animals affected) (SD rats; middle dose 15 mg/kg/day): seven and 7/20; AUC [2]: 2180 ng·h/mL; Cmax [2]: 229 ng/mL; Tmax [2]: 2.83 h; bioavailability [2]: 77.4%; half-life [2]: 4.08 h
COc1ccc(-c2ccc3ncc4c(c3c2)n(-c2ccc(N3CCNCC3)c(C(F)(F)F)c2)c(=O)n4C)cn1 [BGT-226, reference compound]	41.9	1.99	1520	4.8	21.7	8.72			AUC [2]: 852 ng·h/mL; Cmax [2]: 61.1 ng/mL; Tmax [2]: 6 h; bioavailability [2]: 28%
CN1Cc2cnc3ccc(-c4cnc5ccccc5c4)nc3c2N(c2ccc(C(C)(C)C#N)cc2)C1=O [Compound 52]	154	66.5					436	467	
CSc1ccc(-c2ccc3ncc4c(c3n2)N(c2cccc(C(F)(F)F)c2)C(=O)N(C)C4)cn1 [Compound 8]	260	76.5							
CN1Cc2cnc3ccc(-c4ccc(C#N)nc4)nc3c2N(c2cccc(C(F)(F)F)c2)C1=O [Compound 6]	33.8	24							
COc1ccc(-c2ccc3ncc4c(c3n2)N(c2cccc(C(F)(F)F)c2)C(=O)N(C)C4)cn1 [Compound 2]	88.4	54.3							
CN1CCN(c2ccc(-c3ccc4ncc5c(c4n3)N(c3cccc(C(F)(F)F)c3)C(=O)N(C)C5)cn2)CC1 [Compound 11]	496	31.2							

Source: patent US9284315B2, “Three-ring PI3K and/or mTOR inhibitor” (XUANZHU PHARMA CO., LTD., priority 2011, dated 2016)
